Counter-ions that a name gives are not always drawn.

Holding throughout (format): in vivo
For data set [1], the system named is Male Slc-ddy mice. Briefly: Inhibitory effect on the motor coordination (rotating rod test). Conditions: for Inhibitory effect on motor coordination Effect: 300 - 600 mg/10 ml/kg oral, 30 min, compared with eperisone hydrochloride; for Inhibitory effect on motor coordination Durability / ED50 / inhibitory effect on the motor coordination compared with eperisone hydrochloride: oral; for ED50: Mus musculus, 0.5 h, rotating rod 30 min after administration, falling off within 60 s counted as positive, 95% confidence limit in brackets, read-out: ED₅₀ values for the inhibitory effect on the motor coordination.
Experimental: Male Slc-ddy mice of 20 - 25 g (5 weeks old) were used in groups of 7 - 10. The test compounds were used dissolved or suspended in 0.5 % CMC or 0.5 % Tween 80 solution. Each test compound (300 - 600 mg/10 ml/kg) was orally administered to the mice, and after 30 min the mice were put on a 3-cm diameter rod rotating at a speed of 10 min⁻¹ in a direction opposite to the rotation direction, and the time of staying on it was measured to a maximum of 180 s. Those falling off of the rotating rod within 60 s were judged as having an inhibitory effect on the motor coordination and, with the number of cases as index, comparison was made with the reference compound (eperisone hydrochloride).
The mice were trained in advance to be able to stay on the rotating rod for more than 300 s, and those capable of staying on it for more than 250 s immediately before testing were used.

Another data set in a line: Acute toxicity test. The settings on record: mouse, in vivo, po, mice, observation for 7 days, Litchfield-Wilcoxon, 95% confidence limit in brackets, read-out: LD₅₀ values (50% of lethal dose). The protocol: Male ddy mice of 20-30 g were used as test animals in groups of 5-10. The test compounds were dissolved or suspended in 0.5 % Tween 80 aqueous solution, and orally administered to the mice. Observation was made for 7 days after administration. The LD₅₀ values (50% of lethal dose) (95% confidence limit) were determined by the Litchfield-Wilconxon method, and are shown in Table 4.

In data set [2] the test system is Male Slc-ddy mice. Briefly: Anti-strychnine effect (time from tonic convulsions to death after subcutaneous strychnine nitrate). The settings on record: for Anti-strychnine effect Effect: 30 min, compared with eperisone hydrochloride. The protocol: Strychnine is known to enhance reflex stimulation, among others, of spinal cord to induce convulsions. If this effect of strychnine can be suppressed by administration of any of the above-mentioned compounds, this compound is expected to have a central muscle relaxation effect.
Male Slc-ddy mice of 25 - 30 g (5 weeks old) were used in groups of 7 - 10.
The test compounds (100 mg/10 ml/kg) were orally administered to the mice, and after 30 min, 1.5 mg/10 ml/kg of strychnine nitrate was administered subcutaneously, and the time was measured from the occurence of tonic convulsions to the death of the animals. Cases in which this time was extended to 6 min or more were judged as corresponding to an anti-strychnine effect, and with the number of such cases as index, comparison was made with the reference compound (eperisone hydrochloride). […] The ED₅₀ values (95% confidence limit) for the anti-strychnine effect were determined by the Litchfield-Wilcoxon method and are shown in Table 3.

Data set [3] concerns Male Slc-ddy mice. In words: Anti-nicotinic effect (survival after intravenous nicotine bitartrate). The settings on record: for Anti-nicotinic effect Effect: 30 min, compared with eperisone hydrochloride.
Experimental: Experimental Method of Male Slc-ddy mice/30 - 35 g (6 weeks old) were used as test animals in groups of 7 - 10. The test compounds (100 mg/10 ml/kg) were orally administered to the mice, and after 30 min, nicotine bitartrate (3 mg/10 ml/kg) was administered intravenously, and the number of animals killed due to tonic convulsion was counted. The surviving animals were judged as having an anti-nicotinic effect, and with the number thereof as index the comparison concerning the anti-nicotinic effect was made with the reference compound (eperisone hydrochloride).

With `CCc1ccc(C(=O)C(C)CN2CCN(CC(C)C(=O)c3ccc(CC)cc3)CC2)cc1.Cl.Cl` (stereo not shown) [Compound 1, N,N'-bis[2-(4-ethylbenzoyl)-propyl]-piperazine dihydrochloride], in the data set on Male Slc-ddy mice [1], the “Inhibitory effect on motor coordination Effect” value stood at 0 and the “Inhibitory effect on motor coordination Durability” value is “-”.
For `CCc1ccc(C(=O)C(C)Cn2ccnc2)cc1` (stereo not shown) [Compound 2, 1-(4-ethylphenyl)-3-(1H-imidazol-1-yl)-2-methylpropan-1-one], the LD50 at 168 h in “Acute toxicity test” stood at 218 mg/kg. In addition, in the data set with Male Slc-ddy mice [1], the “Inhibitory effect on motor coordination Effect” value was 0, the ED50 came out at 200 mg/kg and the “inhibitory effect on the motor coordination compared with eperisone hydrochloride” value was “stronger inhibitory effect on the motor coordination than eperisone hydrochloride”. Moreover, the ED50 in the data set with Male Slc-ddy mice [2] (Mus musculus, po, 0.5 h, read-out: ED₅₀ values for the anti-strychnine effect) worked out at 135 mg/kg. Moreover, in the data set with Male Slc-ddy mice [2] (mice, 100 mg/10 ml/kg oral), the “anti-strychnine effect compared with eperisone hydrochloride” value was “stronger anti-strychnine effect than eperisone hydrochloride” and the “Anti-strychnine effect Effect” value is reported as “◎”. For the same compound, in the data set on Male Slc-ddy mice [3] (100 mg/10 ml/kg oral), the “anti-nicotinic effect compared with eperisone hydrochloride” value was “stronger anti-nicotinic effect than eperisone hydrochloride” and the “Anti-nicotinic effect Effect” value is recorded as “◎”. For the same compound, the ED50 in the data set with Male Slc-ddy mice [3] (Mus musculus, 0.5 h, oral, nicotine bitartrate 3 mg/10 ml/kg i.v. after 30 min, Litchfield-Wilcoxon, 95 % confidence limit in brackets, read-out: ED₅₀ values for the anti-nicotinic effect) turned out to be 26 mg/kg.
As to `CC(Cn1ccnc1)C(=O)c1ccc(Cl)cc1` (stereo not shown) [Compound 3, hydrochloride], the “Inhibitory effect on motor coordination Effect” value with Male Slc-ddy mice [1] is 0. In the data set on Male Slc-ddy mice [3] (100 mg/10 ml/kg oral), the “Anti-nicotinic effect Effect” value was 0.
Take `CCc1ccc(C(=O)C(CC)CN2CCCCC2)cc1.Cl` (stereo not shown) [Compound 4, 2-ethyl-1-(4-ethylphenyl)-3-piperidinopropan-1-one hydrochloride]: in the data set on Male Slc-ddy mice [1], the “Inhibitory effect on motor coordination Effect” value is recorded as 0 and the “Inhibitory effect on motor coordination Durability” value was “-”. Moreover, the “Anti-nicotinic effect Effect” value in the data set with Male Slc-ddy mice [3] (100 mg/10 ml/kg oral) was found to be 0.
For the compound `CCc1ccc(C(=O)C(CN2CCCCC2)C(C)C)cc1` (stereo not shown) [Compound 5, 1-(4-ethylphenyl)-2-isopropyl-3-piperidinopropan-1-one], in the data set with Male Slc-ddy mice [1], the “Inhibitory effect on motor coordination Effect” value is recorded as 0 and the “Inhibitory effect on motor coordination Durability” value is given as “-”. The “Anti-nicotinic effect Effect” value with Male Slc-ddy mice [3] (100 mg/10 ml/kg oral) was 0.
For `CCc1ccc(C(=O)C(C)(C)CN2CCCCC2)cc1` [Compound 6, 1-(4-ethylphenyl)-2,2-dimethyl-3-piperidinopropan-1-one], the “Inhibitory effect on motor coordination Effect” value in the data set with Male Slc-ddy mice [1] is “◎”. In the data set on Male Slc-ddy mice [3] (100 mg/10 ml/kg oral), the “Anti-nicotinic effect Effect” value is given as 0.
Take `CCc1ccc(C(=O)C(CN2CCCCC2)c2ccccc2)cc1.Cl` (stereo not shown) [Compound 7, 1-(4-ethylphenyl)-2-phenyl-3-piperidinopropan-1-one hydrochloride]: in the data set with Male Slc-ddy mice [1], the “Inhibitory effect on motor coordination Effect” value amounted to 0 and the “Inhibitory effect on motor coordination Durability” value is “-”. In the data set with Male Slc-ddy mice [3] (100 mg/10 ml/kg oral), the “Anti-nicotinic effect Effect” value was 0.
With `CC(Cn1ccnc1)C(=O)c1ccccc1` (stereo not shown) [Compound 8, 3-(1H-imidazol-1-yl)-2-methyl-1-phenyl-propan-1-one], in the data set with Male Slc-ddy mice [1], the “Inhibitory effect on motor coordination Effect” value is given as 0.
Regarding `CCCc1ccc(C(=O)C(C)Cn2ccnc2)cc1` (stereo not shown) [Compound 9, 3-(1H-imidazol-1-yl)-2-methyl-1-(4-n-propylphenyl)-propan-1-one], in the data set on Male Slc-ddy mice [1], the “Inhibitory effect on motor coordination Effect” value was found to be 0. The “Anti-nicotinic effect Effect” value with Male Slc-ddy mice [3] (100 mg/10 ml/kg oral) is listed as “◎”.
Taken in the same sequence, the figures for `CC(Cn1ccnc1)C(=O)c1ccc(C(C)C)cc1` (stereo not shown) [Compound 10, 3-(1H-imidazol-1-yl)-1-(4-isopropylphenyl)-2-methylpropan-1-one] were 0 and 0.
Consider `CC(Cn1ccnc1)C(=O)c1ccc(C(C)(C)C)cc1` (stereo not shown) [Compound 11, 1-(4-t-butylphenyl)-3-(1H-imidazol-1-yl)-2-methylpropan-1-one], for which, in the data set with Male Slc-ddy mice [1], the “Inhibitory effect on motor coordination Effect” value worked out at 0. In addition, in the data set with Male Slc-ddy mice [2] (mice, 100 mg/10 ml/kg oral), the “Anti-strychnine effect Effect” value is reported as 0.
`CC(Cn1ccnc1)C(=O)c1ccc(-c2ccccc2)cc1` (stereo not shown) [Compound 12, 1-(4-biphenyl)-3-(1H-imidazol-1-yl)-2-methylpropan-1-one]: the “Inhibitory effect on motor coordination Durability” value in the data set on Male Slc-ddy mice [1] is reported as “-”. Further, the “Anti-nicotinic effect Effect” value in the data set with Male Slc-ddy mice [3] (100 mg/10 ml/kg oral) was “◎”.
On to `Cc1ccc(C(=O)C(C)Cn2ccnc2)c(C)c1.Cl` (stereo not shown) [Compound 13, 3-(1H-imidazol-1-yl)-2-methyl-1-(2,4-dimethylphenyl)-propan-1-one hydrochloride], for which, in the data set with Male Slc-ddy mice [1], the “Inhibitory effect on motor coordination Effect” value worked out at 0 and the “Inhibitory effect on motor coordination Durability” value is reported as “-”. Besides, the “Anti-nicotinic effect Effect” value in the data set with Male Slc-ddy mice [3] (100 mg/10 ml/kg oral) was “◎”.
Take `CC(Cn1ccnc1)C(=O)c1ccc2ccccc2c1` (stereo not shown) [Compound 15, 3-(1H-imidazol-1-yl)-2-methyl-1-(2-naphthyl)-propan-1-one]: in the data set on Male Slc-ddy mice [1], the “Inhibitory effect on motor coordination Effect” value came to 0, the ED50 is 152 mg/kg, the “Inhibitory effect on motor coordination Durability” value was “-” and the “inhibitory effect on the motor coordination compared with eperisone hydrochloride” value is on record as “stronger inhibitory effect on the motor coordination than eperisone hydrochloride”. For the same compound, in the data set with Male Slc-ddy mice [2] (mice, 100 mg/10 ml/kg oral), the “Anti-strychnine effect Effect” value was “◎”. In addition, the “Anti-nicotinic effect Effect” value with Male Slc-ddy mice [3] (100 mg/10 ml/kg oral) is “◎”.
With `Cc1ccc(C(=O)C(C)Cn2ccnc2)cc1` (stereo not shown) [Compound 16, 3-(1H-imidazol-1-yl)-2-methyl-1-(4-methylphenyl)-propan-1-one], in the data set on Male Slc-ddy mice [1], the “Inhibitory effect on motor coordination Effect” value is on record as “◎”. In addition, in the data set with Male Slc-ddy mice [3] (100 mg/10 ml/kg oral), the “Anti-nicotinic effect Effect” value was “◎”.
For the compound `CCc1ccc(C(=O)CCn2ccnc2)cc1` [Compound 17, 1-(4-ethylphenyl)-3-(1H-imidazol-1-yl)-propan-1-one], in the data set with Male Slc-ddy mice [1], the “Inhibitory effect on motor coordination Effect” value is “○” and the “Inhibitory effect on motor coordination Durability” value is on record as “-”. Besides, the “Anti-nicotinic effect Effect” value in the data set with Male Slc-ddy mice [3] (100 mg/10 ml/kg oral) is recorded as “○”.
With `CCc1ccc(C(=O)C(CC)Cn2ccnc2)cc1.Cl` (stereo not shown) [Compound 18, 2-ethyl-1-(4-ethylphenyl)-3-(1H-imidazol-1-yl)-propan-1-one hydrochloride], in the data set with Male Slc-ddy mice [1], the “Inhibitory effect on motor coordination Effect” value was “◎”. In addition, the “Anti-nicotinic effect Effect” value in the data set with Male Slc-ddy mice [3] (100 mg/10 ml/kg oral) is listed as “◎”.
For `CCc1ccc(C(=O)C(Cn2ccnc2)c2ccccc2)cc1` (stereo not shown) [Compound 19, 1-(4-ethylphenyl)-3-(1H-imidazol-1-yl)-2-phenylpropan-1-one], in the data set on Male Slc-ddy mice [1], the “Inhibitory effect on motor coordination Effect” value was “◎” and the “Inhibitory effect on motor coordination Durability” value is reported as “-”. Also, the “Anti-nicotinic effect Effect” value with Male Slc-ddy mice [3] (100 mg/10 ml/kg oral) is given as “◎”.
With `CC(Cn1ccnc1)C(=O)c1ccc2c(c1)Cc1ccccc1-2` (stereo not shown) [Compound 20, 1-(9H-fluoren-2-yl)-3-(1H-imidazol-1-yl)-2-methylpropan-1-one], in the data set with Male Slc-ddy mice [1], the “Inhibitory effect on motor coordination Effect” value is “◎” and the “Inhibitory effect on motor coordination Durability” value is “-”. Besides, in the data set on Male Slc-ddy mice [2] (mice, 100 mg/10 ml/kg oral), the “Anti-strychnine effect Effect” value is listed as “○”. The “Anti-nicotinic effect Effect” value with Male Slc-ddy mice [3] (100 mg/10 ml/kg oral) is recorded as “◎”.
For the compound `CCc1ccc(C(=O)C(C)n2ccnc2)cc1.Cl` (stereo not shown) [Compound 21, 1-(4-ethylphenyl)-2-(1H-imidazol-1-yl)-propan-1-one hydrochloride], in the data set with Male Slc-ddy mice [1], the “Inhibitory effect on motor coordination Durability” value was “-”. Besides, in the data set with Male Slc-ddy mice [3] (100 mg/10 ml/kg oral), the “Anti-nicotinic effect Effect” value is listed as “◎”.
Regarding `CCc1ccc(C(O)C(C)Cn2ccnc2)cc1` (stereo not shown) [Compound 22, 1-(4-ethylphenyl)-3-(1H-imidazol-1-yl)-2-methylpropan-1-ol], in the data set on Male Slc-ddy mice [1], the “Inhibitory effect on motor coordination Effect” value is “◎” and the “inhibitory effect on the motor coordination compared with eperisone hydrochloride” value was “stronger inhibitory effect on the motor coordination than eperisone hydrochloride”. The “Anti-strychnine effect Effect” value in the data set on Male Slc-ddy mice [2] (mice, 100 mg/10 ml/kg oral) is reported as “○”. For the same compound, in the data set on Male Slc-ddy mice [3] (100 mg/10 ml/kg oral), the “Anti-nicotinic effect Effect” value is recorded as “◎”.
Consider `CCc1ccc(C(=O)C(CN2CCCC2)c2ccccc2)cc1.Cl` (stereo not shown) [Compound 24, 1-(4-ethylphenyl)-2-phenyl-3-(pyrrolidin-1-yl)-propan-1-one hydrochloride], for which the “Inhibitory effect on motor coordination Effect” value in the data set with Male Slc-ddy mice [1] is given as “○”. For the same compound, the “Anti-nicotinic effect Effect” value with Male Slc-ddy mice [3] (100 mg/10 ml/kg oral) is given as “○”.
Take `CC(C)(CN1CCCC1)C(=O)c1ccc(Cl)cc1` [Compound 25, 1-(4-chlorophenyl)-2,2-dimethyl-3-(pyrrolidin-1-yl)-propan-1-one]: the “Inhibitory effect on motor coordination Effect” value with Male Slc-ddy mice [1] is on record as “◎”. In addition, the “Anti-nicotinic effect Effect” value in the data set on Male Slc-ddy mice [3] (100 mg/10 ml/kg oral) is “○”.
`CCc1ccc(C(=O)C(C)Cn2ccnc2C)cc1` (stereo not shown) [Compound 26, 1-(4-ethylphenyl)-2-methyl-3-(2-methyl-1H-imidazol-1-yl)-propan-1-one]: in the data set on Male Slc-ddy mice [1], the “Inhibitory effect on motor coordination Effect” value is reported as “◎” and the “Inhibitory effect on motor coordination Durability” value was “-”. In addition, in the data set with Male Slc-ddy mice [3] (100 mg/10 ml/kg oral), the “Anti-nicotinic effect Effect” value was “◎”.
For `CCc1ccc(C(=O)C(C)Cn2cncn2)cc1` (stereo not shown) [Compound 27, 1-(4-ethylphenyl)-2-methyl-3-(1H-1,2,4-triazol-1-yl)-propan-1-one], in the data set with Male Slc-ddy mice [1], the “Inhibitory effect on motor coordination Effect” value is on record as “○” and the “Inhibitory effect on motor coordination Durability” value is “-”. The “Anti-nicotinic effect Effect” value in the data set with Male Slc-ddy mice [3] (100 mg/10 ml/kg oral) is “○”.

The values above are taken from patent EP0423524A2, “Propiophenone derivatives and their preparation and pharmaceutical use” (MARUHO Co., Ltd., priority 1989, dated 1991).
